This note sets out measurements from US7807845B2, “Resistance-repellent retroviral protease inhibitors” (priority 2004, dated 2010).

Experiment [1] relates to HIVmutant10 (16 mutations). Put plainly: Antiviral assay in MT-4 cells (MTT), mutant 10 virus. The settings on record: Human immunodeficiency virus 1, MT4, 120 h, read-out: IC50 Mutant 10. Type of experiment: cell-based, HIV. As for the experimental part: (§1) MT-4 cells were obtained from the AIDS Research and Reference Reagent Program (ARRRP, Division of AIDS, NIAID, NIH: MT-4 from Dr. D. Richman). Cells were propagated in RPMI 1640 supplemented with 10% fetal bovine serum, 50U of penicillin and 50 μg of streptomycin per ml (Invitrogen, Carlsbad Calif.). The following HIV viruses were used for testing of antiviral potency of compounds: WT=HIVHXB2; recombinant HIVHXB2 virus from drug resistant patient isolates; HIVmutant10 (16 mutations); HIVmutant8 (14 mutations); HIVmutant9 (10 mutations).
(§2) The potency of test compound was determined as previously described (ref 1-3) with minor modifications. MT-4 cells (1.5×10^4/ml) were exposed to 200 50 % tissue culture infective doses (TCID50) of viruses in the presence of various concentrations of test compound in 96 well microtiter plates and incubated at 37° C. for 5 days. 3-(4,5-dimethylthiazol-2-yl)-2,5-diphenytetrazolium bromide (MTT) solution was added to a final concentration of 0.75 mg/ml, and plates were incubated 1 hour. After incubation cells were dissolved in isopropanol/Triton-X 100/HCl (1000:50:25) solution. Absorbance was monitored in a microplate reader (Spectramax, Molecular Devices) at 540 nm and 690 nm. Cytotoxicity of compounds was tested in a similar assay in the absence of virus.

Another experiment deals with WT=HIVHXB2. The experiment can be described thus: Antiviral assay in MT-4 cells (MTT), WT virus. The experiment is classed as cell-based, HIV. The settings on record: Human immunodeficiency virus 1, MT4, 120 h, HIVHXB2, 5 days. The protocol: as §1, §2
Experiment [2] addresses mutant HIV PR (Mutant 10) (Human immunodeficiency virus type 1 group M subtype B, UniProt P04585). The experiment can be described thus: HIV PR inhibition assay, Mutant 10. Type of experiment: biochemical. As to conditions: read-out: Ki Mutant 10; recombinant mutant HIV PR, fluorogenic substrate, pH 6.5. As for the experimental part: (§3) Expression and purification of WT and mutant HIV PR. Recombinant wild type and mutant HIV PRs were expressed using pET21 vector (Novagen) in E. coli cells, and purified and refolded as described previously (Gulnik et al, 1995). The cells were resuspended in 50 mM tris-HCl buffer, pH 8.0, 25 mM NaCl, 0.2% β-mercaptoethanol (buffer A), sonicated and centrifuged. Inclusion bodies were washed first with buffer A, then with buffer A containing respectively 0.1% Triton X-100, 1 M NaCl, 1 M urea, and finally with buffer A alone. Purified inclusion bodies were solubilized by addition of buffer A containing 8 M urea at room temperature. The solution was clarified by centrifugation and loaded onto 2.6×9.5 cm Q-Sepharose column. Flow-through fractions were collected and dialyzed against 3 changes of refolding buffer, which consists of 25 mM Na-phosphate, pH 7.0, 25 mM NaCl, 0.2% β-mercaptoethanol and 10% glycerol, aliquoted and stored at −80° C.
(§4) Inhibition constants were determined using the fluorogenic substrate ArgGlu(EDANS)[…]DABCYL)Arg (Amichem, USA). HIV Protease was preincubated for 0.5-1 min at ambient temperature on a 96 well plate with different concentrations of inhibitor in 0.05 M sodium phosphate buffer, pH 6.5, containing 20 mM NaCl, 2 mM DTT and 0.01% Tween-20. The reaction was initiated by the addition of substrate. Final enzyme concentration was 2-5 nM for WT and 2-30 nM for mutants. Substrate concentration was 20 uM and DMSO concentration 2%. The increase in fluorescence intensity at the emission maximum of 520 nm (excitation wavelength 340 nm, cut-off filter 495 nm) was monitored as a function of time using a Spectramax Gemini fluorescence plate reader (Molecular Devices, CA USA). The initial rate of hydrolysis was calculated by first-degree polynomial fit using SoftMAX operating software. Data were fitted to the Michaelis-Menten equation for competitive inhibitors. For tight-binding inhibitors the data were fitted by nonlinear regression analysis to the equation V=V0/2Et({[Ki(1+S/Km)+It−Et]^2+4Ki(1+S/Km)Et}^1/2−[Ki(1+S/Km)+It−Et]) (Williams and Morrison, 1979) with the program GraFit, version 5 (Erithacus Software Limited, UK), where V and V0 are initial velocities with and without inhibitor, Km is the Michaelis-Menten constant and S, Et and It are the concentrations of substrate, active enzyme and inhibitor respectively.

Experiment [3] relates to HIVmutant8 (14 mutations). The experiment can be described thus: Antiviral assay in MT-4 cells (MTT), mutant 8 virus. The experiment is classed as cell-based, HIV. As to conditions: Human immunodeficiency virus 1, MT4, 120 h, read-out: IC50 Mutant 8. As for the experimental part: as §1, §2
In another experiment the target is T1, wild type HIV PR (Human immunodeficiency virus type 1 group M subtype B, UniProt P04585).
T1 construct: Recombinant wild type and mutant HIV PRs were expressed using pET21 vector (Novagen) in E. coli cells; made in house
The experiment can be described thus: HIV PR inhibition assay, wild type. Type of experiment: biochemical. As for the experimental part:
as §3, §4

Another experiment deals with mutant HIV PR (Mutant 9) (Human immunodeficiency virus type 1 group M subtype B, UniProt P04585). The experiment can be described thus: HIV PR inhibition assay, Mutant 9. The settings on record: read-out: Ki Mutant 9; recombinant mutant HIV PR, fluorogenic substrate, pH 6.5. Type of experiment: biochemical. The protocol: as §3, §4
Experiment [4] deals with HIVmutant9 (10 mutations). Put plainly: Antiviral assay in MT-4 cells (MTT), mutant 9 virus. The experiment is classed as cell-based, HIV. The settings on record: Human immunodeficiency virus 1, MT4, 120 h, read-out: IC50 Mutant 9. As for the experimental part:
as §1, §2

The next experiment concerns the target mutant HIV PR (Mutant 8) (Human immunodeficiency virus type 1 group M subtype B, UniProt P04585). The experiment can be described thus: HIV PR inhibition assay, Mutant 8. The experiment is classed as biochemical. As to conditions: read-out: Ki Mutant 8; recombinant mutant HIV PR, fluorogenic substrate, pH 6.5. The protocol:
as §3, §4

Molecules are shown by their SMILES.

As usually defined, the IC50 is the concentration that inhibits the measured activity by half. What is called Ki is a dissociation constant, usually derived from enzyme kinetics or from competition with a known ligand. Turning to `CC(C)CN(C[C@@H](O)[C@H](Cc1ccccc1)NC(=O)O[C@H]1CO[C@H]2OCC[C@H]21)S(=O)(=O)c1ccc2c(c1)/C(=C/N(C)C)C(=O)N2` [Compound 21, {1-Benzyl-3-[(3-dimethylaminomethylene-2-oxo-2,3-dihydro-1H-indole-5-sulfonyl)-isobutyl-amino]-2-hydroxy-propyl}-carbamic acid hexahydro-furo[2,3-b]furan-3-yl ester], the IC50 came to 70 nM in experiment [1], 93 nM in the experiment with WT=HIVHXB2, 90 nM in experiment [3] and 65 nM in experiment [4]. In addition, the Ki in experiment [2] was less than 1 nM; on wild type HIV PR it was less than 0.1 nM; at mutant HIV PR (Mutant 9), less than 0.1 nM; at mutant HIV PR (Mutant 8), less than 0.3 nM.

Consider `CC(C)CN(C[C@@H](O)[C@H](Cc1ccccc1)NC(=O)O[C@H]1CO[C@H]2OCC[C@H]21)S(=O)(=O)c1ccc2c(c1)/C(=C/NCC(C)(C)C)C(=O)N2` [Compound 22, [1-Benzyl-3-({3-[(2,2-dimethyl-propylamino)-methylene]-2-oxo-2,3-dihydro-1H-indole-5-sulfonyl}-isobutyl-amino)-2-hydroxy-propyl]-carbamic acid hexahydro-furo[2,3b]furan-3-yl ester], for which the IC50 in experiment [1] was 27 nM; in the experiment with WT=HIVHXB2 it was 4.5 nM; in experiment [3], 13 nM; in experiment [4], 9.5 nM. The Ki in experiment [2] was less than 1 nM; at wild type HIV PR it was less than 0.1 nM; on mutant HIV PR (Mutant 9) it was 0.15 nM; at mutant HIV PR (Mutant 8), less than 0.3 nM.

Take `CCCN(C=C1C(=O)Nc2ccc(S(=O)(=O)N(CC(C)C)CC(O)C(Cc3ccccc3)NC(=O)OC3COC4OCCC34)cc21)CCC` (stereo not shown) [Compound 32, {1-Benzyl-3-[(3-dipropylaminomethylene-2-oxo-2,3-dihydro-1H-indole-5-sulfonyl)-isobutyl-amino]-2-hydroxy-propyl}-carbamic acid hexahydro-furo[2,3-b]furan-3-yl ester]: the IC50 was determined as 58 nM in experiment [1], 10 nM with WT=HIVHXB2, 24 nM in experiment [3] and 12 nM in experiment [4]. Besides, the Ki in experiment [2] was less than 1 nM; on wild type HIV PR, less than 0.1 nM; on mutant HIV PR (Mutant 9) it was less than 0.1 nM; on mutant HIV PR (Mutant 8) it was less than 0.3 nM.

With `CNC(C)=C1C(=O)Nc2ccc(S(=O)(=O)N(CC(C)C)CC(O)C(Cc3ccccc3)NC(=O)OC3COC4OCCC34)cc21` (stereo not shown) [Compound 41, (1-Benzyl-2-hydroxy-3-{isobutyl-[3-(1-methylamino-ethylidene)-2-oxo-2,3-dihydro-1H-indole-5-sulfonyl]-amino}-propyl)-carbamic acid hexahydro-furo[2,3-b]furan-3-yl ester], the 50% inhibitory concentration (IC50) in experiment [1] stood at 56 nM; in the experiment with WT=HIVHXB2, 10 nM; in experiment [3], 29 nM; in experiment [4], 17 nM. Besides, the Ki was less than 1 nM in experiment [2], less than 0.1 nM at wild type HIV PR, less than 0.1 nM on mutant HIV PR (Mutant 9) and less than 0.3 nM on mutant HIV PR (Mutant 8).

For `CCNC(C)=C1C(=O)Nc2ccc(S(=O)(=O)N(CC(C)C)CC(O)C(Cc3ccccc3)NC(=O)OC3COC4OCCC34)cc21` (stereo not shown) [Compound 43, (1-Benzyl-3-{[3-(1-ethylamino-ethylidene)-2-oxo-2,3-dihydro-1H-indole-5-sulfonyl]-isobutyl-amino}-2-hydroxy-propyl)-carbamic acid hexahydro-furo[2,3-b]furan-3-yl ester], the IC50 in experiment [1] was 65 nM; in the experiment on WT=HIVHXB2 it was 7 nM; in experiment [3], 23 nM; in experiment [4] it was 9 nM. The Ki was less than 1 nM in experiment [2], less than 0.1 nM on wild type HIV PR, less than 0.1 nM on mutant HIV PR (Mutant 9) and less than 0.3 nM at mutant HIV PR (Mutant 8).

For the compound `CC(NCC(F)(F)F)=C1C(=O)Nc2ccc(S(=O)(=O)N(CC(C)C)CC(O)C(Cc3ccccc3)NC(=O)OC3COC4OCCC34)cc21` (stereo not shown) [Compound 45, [1-Benzyl-2-hydroxy-3-(isobutyl-{2-oxo-3-[1-(2,2,2-trifluoro-ethylamino)-ethylidene]-2,3-dihydro-1H-indole-5-sulfonyl}-amino)-propyl]-carbamic acid hexahydro-furo[2,3-b]furan-3-yl ester], the results for the IC50 (in experiment [1]; with WT=HIVHXB2; in experiment [3]) were 52 nM, 13 nM and 26 nM, respectively. Further, the Ki in experiment [2] is 3.1 nM; on wild type HIV PR, less than 0.1 nM; at mutant HIV PR (Mutant 9), less than 0.1 nM; on mutant HIV PR (Mutant 8), less than 0.3 nM.

Consider `CCCCNC=C1C(=O)Nc2ccc(S(=O)(=O)N(CC(C)C)CC(O)C(Cc3ccccc3)NC(=O)OC3COC4OCCC34)cc21` (stereo not shown) [Compound 57, {1-Benzyl-3-[(3-butylaminomethylene-2-oxo-2,3-dihydro-1H-indole-5-sulfonyl)-isobutyl-amino]-2-hydroxy-propyl}-carbamic acid hexahydro-furo[2,3-b]furan-3-yl ester], for which the 50% inhibitory concentration (IC50) in experiment [1] was determined as 40 nM; with WT=HIVHXB2, 13 nM; in experiment [3], 25 nM; in experiment [4], 11 nM. Further, the Ki is less than 1 nM in experiment [2], less than 0.1 nM at wild type HIV PR, 0.19 nM on mutant HIV PR (Mutant 9) and less than 0.3 nM on mutant HIV PR (Mutant 8).

On to `CC(C)CCNC=C1C(=O)Nc2ccc(S(=O)(=O)N(CC(C)C)CC(O)C(Cc3ccccc3)NC(=O)OC3COC4OCCC34)cc21` (stereo not shown) [Compound 66, [1-Benzyl-2-hydroxy-3-(isobutyl-{3-[(3-methyl-butylamino)-methylene]-2-oxo-2,3-dihydro-1H-indole-5-sulfonyl}-amino)-propyl]-carbamic acid hexahydro-furo[2,3-b]furan-3-yl ester], for which the IC50 turned out to be 39 nM in experiment [1], 12 nM in the experiment with WT=HIVHXB2 and 26 nM in experiment [3]. Besides, the Ki in experiment [2] was less than 1 nM; on wild type HIV PR, less than 0.1 nM; at mutant HIV PR (Mutant 9), less than 0.1 nM; at mutant HIV PR (Mutant 8) it was less than 0.3 nM.

Take `CC(C)CN(CC(O)C(Cc1ccccc1)NC(=O)OC1COC2OCCC12)S(=O)(=O)c1ccc2c(c1)C(=CNCc1ccc3ccccc3n1)C(=O)N2` (stereo not shown) [Compound 130]: the IC50 amounted to 27 nM in experiment [1], 32 nM in the experiment on WT=HIVHXB2 and 23 nM in experiment [4]. For the same compound, the Ki in experiment [2] was less than 1 nM; at wild type HIV PR it was 0.1 nM; on mutant HIV PR (Mutant 9), less than 0.1 nM; at mutant HIV PR (Mutant 8), less than 0.3 nM.

For `CCOC(=O)CN(C=C1C(=O)Nc2ccc(S(=O)(=O)N(CC(C)C)CC(O)C(Cc3ccccc3)NC(=O)OC3COC4OCCC34)cc21)Cc1ccccc1` (stereo not shown) [Compound 138], the values for the IC50 (in experiment [1]; in the experiment with WT=HIVHXB2; in experiment [4]) were 16 nM, 31 nM and 15 nM, respectively. Further, the Ki in experiment [2] is 1.9 nM; at wild type HIV PR, less than 0.1 nM; at mutant HIV PR (Mutant 9), 0.11 nM; on mutant HIV PR (Mutant 8) it was less than 0.3 nM.
